test system: Pseudomonas aeruginosa PAO1 MB9798 (efflux+, IMP-1); details: ratio MITC95 PA 9798/MITC95 PA 9799; imipenem at 2 μg/mL
Description: The strain background was Pseudomonas aeruginosa PAO1.
The strain set was then used as a pair to determine the effect of metallo-β-lactamase inhibitors of Formula I on the MIC of imipenem and/or ceftazidime. A fixed concentration of antibiotic was included in standard microbroth MIC tests, usually at the CLSI (Clinical and Laboratory Standards Institute) breakpoint concentration. A fixed amount of a class A/C beta-lactamase inhibitor was also included to inhibit the resident Pseudomonas AmpC enzyme. A serial titration of the metallo-β-lactamase inhibitor was included and the concentration of metallo-β-lactamase inhibitor which restores susceptibility of the strain to the included antibiotic was recorded. That concentration of metallo-β-lactamase inhibitor was then compared between the two strains to determine the fold difference between the efflux + (MB9798) and efflux − (MB9799) strains. This was taken as an indication of the extent to which the MBLi is subject to efflux.

Compared with `N[C@@H](CO)CNS(=O)(=O)c1ccc(-c2cccc(C3N=CN=N3)c2)c(-c2nn[nH]n2)c1S(N)(=O)=O` (stereo partly drawn) [Example 226, N4-((R)-2-amino-3-hydroxypropyl)-2-(2H-tetrazol-5-yl)-3′-(3H-1,2,4-triazol-3-yl)-[1,1′-biphenyl]-3,4-disulfonamide], `NC[C@H](O)CNS(=O)(=O)c1ccc(-c2ccc(N)nc2)c(-c2nn[nH]n2)c1S(N)(=O)=O` [Example 309, (S)-N1-(3-amino-2-hydroxypropyl)-4-(6-aminopyridin-3-yl)-3-(2H-tetrazol-5-yl)benzene-1,2-disulfonamide] is lower in Efflux ratio: 2.00 for the first, 1.00 for the second.

Going from `Nc1nc2c(-c3ccc(S(=O)(=O)NC4CNC[C@H]4N)c(S(N)(=O)=O)c3-c3nn[nH]n3)cccc2[nH]1` (stereo in doubt) [Example 322, 4-(2-Amino-1H-benzo[d]imidazol-4-yl)-N1-((3S,4R)-4-aminopyrrolidin-3-yl)-3-(2H-tetrazol-5-yl)benzene-1,2-disulfonamide] to `Nc1nc2c(-c3ccc(S(=O)(=O)NCC4COCCN4)c(S(N)(=O)=O)c3-c3nn[nH]n3)cccc2[nH]1` (centres unmarked) [Example 206, 4-(2-amino-1H-benzo[d]imidazol-4-yl)-N1-(morpholin-3-ylmethyl)-3-(2H-tetrazol-5-yl)benzene-1,2-disulfonamide], the Efflux ratio rises from 0.83 to 2.00.

Going from `Nc1nc2c(-c3ccc(S(=O)(=O)NCC4(N)CCOCC4)c(S(N)(=O)=O)c3-c3nnn[nH]3)cccc2s1.O=CO` [Example 115, 4-((4-(2-aminobenzo[d]thiazol-4-yl)-2-sulfamoyl-3-(1H-tetrazol-5-yl)phenylsulfonamido)methyl)tetrahydro-2H-pyran-4-aminium formate] to `CC(CN)NS(=O)(=O)c1ccc(-c2cccc3sc(N)nc23)c(-c2nnn[nH]2)c1S(N)(=O)=O.O=CO` (centres unmarked) [Example 116, 2-(4-(2-aminobenzo[d]thiazol-4-yl)-2-sulfamoyl-3-(1H-tetrazol-5-yl)phenylsulfonamido) propan-1-aminium formate], the Efflux ratio falls from 1.00 to 0.50.

First: Nc1nc2c(-c3ccc(S(N)(=O)=O)c(S(N)(=O)=O)c3-c3nn[nH]n3)cccc2s1 [Example 143, 4-(2-aminobenzo[d]thiazol-4-yl)-3-(2H-tetrazol-5-yl)benzene-1,2-disulfonamide]
Second: Nc1nc2c(-c3ccc(S(=O)(=O)N4CC(N)C4)c(S(N)(=O)=O)c3-c3nn[nH]n3)cccc2s1 [Example 147, 6-((3-aminoazetidin-1-yl)sulfonyl)-3-(2-aminobenzo[d]thiazol-4-yl)-2-(2H-tetrazol-5-yl)benzenesulfonamide]
The Efflux ratio of the first is lower: 0.50 for the first, 1.00 for the second.

`Nc1ccc(-c2ccc(S(=O)(=O)N[C@H]3CCNC3)c(S(N)(=O)=O)c2-c2nn[nH]n2)cn1` [Example 195, (S)-4-(6-aminopyridin-3-yl)-N^1-(pyrrolidin-3-yl)-3-(2H-tetrazol-5-yl)benzene-1,2-disulfonamide] and `Nc1ccc(-c2ccc(S(=O)(=O)NC[C@@]3(N)CCNC3)c(S(N)(=O)=O)c2-c2nn[nH]n2)cn1` [Example 369, (R)-4-(6-aminopyridin-3-yl)-N1-((3-aminopyrrolidin-3-yl)methyl)-3-(2H-tetrazol-5-yl)benzene-1,2-disulfonamide] are the same in Efflux ratio: 1.00 for the first, 1.00 for the second.

First: CN([C@H]1CCNC1)S(=O)(=O)c1ccc(-c2cccc3sc(N)nc23)c(-c2nnn[nH]2)c1S(N)(=O)=O [Example 65, 4-(2-amino-1,3-benzothiazol-4-yl)-N1-methyl-N1-[(3S)-pyrrolidin-3-yl]-3-(1H-tetrazol-5-yl)benzene-1,2-disulfonamide]
Second: NC[C@H]1CCN(S(=O)(=O)c2ccc(-c3cccc4sc(N)nc34)c(-c3nnn[nH]3)c2S(N)(=O)=O)C1 [Example 74, 3-(2-amino-1,3-benzothiazol-4-yl)-6-{[(3R)-3-(aminomethyl)pyrrolidin-l-yl]sulfonyl}-2-(1H-tetrazol-5-yl)benzenesulfonamide]
The Efflux ratio of the first is higher: 2.00 for the first, 1.00 for the second.

Going from `Nc1nc2c(-c3ccc(S(=O)(=O)NC4(CO)CCNC4)c(S(N)(=O)=O)c3-c3nnn[nH]3)cccc2s1` (centres unmarked) [Example 83, 4-(2-amino-1,3-benzothiazol-4-yl)-N1-[3-(hydroxymethyl)pyrrolidin-3-yl]-3-(1H-tetrazol-5-yl)benzene-1,2-disulfonamide] to `Nc1nc2c(-c3ccc(S(=O)(=O)N[C@@H]4CN[C@H](CO)C4)c(S(N)(=O)=O)c3-c3nnn[nH]3)cccc2s1` [Example 80, 4-(2-amino-1,3-benzothiazol-4-yl)-N1-[(3S,5S)-5-(hydroxymethyl)pyrrolidin-3-yl]-3-(1H-tetrazol-5-yl)benzene-1,2-disulfonamide], the Efflux ratio rises from 0.50 to 1.00.

`CN1CC2(CCN(S(=O)(=O)c3ccc(-c4cccc5sc(N)nc45)c(-c4nnn[nH]4)c3S(N)(=O)=O)C2)C1` [Example 38, 3-(2-amino-1,3-benzothiazol-4-yl)-6-[(2-methyl-2,6-diazaspiro[3.4]oct-6-yl)sulfonyl]-2-(1H-tetrazol-5-yl)benzenesulfonamide] and `Cn1cnc(CNS(=O)(=O)c2ccc(-c3cccc4sc(N)nc34)c(-c3nnn[nH]3)c2S(N)(=O)=O)n1` [Example 20, 4-(2-amino-1,3-benzothiazol-4-yl)-N^1-[(1-methyl-1H-1,2,4-triazol-3-yl)methyl]-3-(1H-tetrazol-5-yl)benzene-1,2-disulfonamide] are the same in Efflux ratio: 1.00 for the first, 1.00 for the second.

Going from `NCCNS(=O)(=O)c1ccc(-c2cccc3[nH]cnc23)c(-c2nn[nH]n2)c1S(N)(=O)=O` [Example 199, N^1-(2-aminoethyl)-4-(1H-benzo[d]imidazol-4-yl)-3-(2H-tetrazol-5-yl)benzene-1,2-disulfonamide] to `NCCCNS(=O)(=O)c1ccc(-c2cccc3[nH]cnc23)c(-c2nn[nH]n2)c1S(N)(=O)=O` [Example 198, N^1-(3-aminopropyl)-4-(1H-benzo[d]imidazol-4-yl)-3-(2H-tetrazol-5-yl)benzene-1,2-disulfonamide], the Efflux ratio rises from 0.55 to 1.00.

First: Nc1nc2c(-c3ccc(S(=O)(=O)NC4CCC5OC4CC5N)c(S(N)(=O)=O)c3-c3nnn[nH]3)cccc2s1.O=C(O)C(F)(F)F (centres unmarked) [Example 95, 2-(4-(2-aminobenzo[d]thiazol-4-yl)-2-sulfamoyl-3-(1H-tetrazol-5-yl)phenylsulfonamido)-8-oxabicyclo[3.2.1] octan-6-aminium 2,2,2-trifluoroacetate]
Second: Nc1nc2c(-c3ccc(S(=O)(=O)NC4C[C@@H]5CN[C@H]4C5)c(S(N)(=O)=O)c3-c3nnn[nH]3)cccc2s1.O=CO (stereo partly drawn) [Example 119, 4-(2-aminobenzo[d]thiazol-4-yl)-N1-((1S,4R)-2-azabicyclo[2.2.1]heptan-6-yl)-3-(1H-tetrazol-5-yl)benzene-1,2-disulfonamide, formate salt]
The Efflux ratio of the first is higher: 1.00 for the first, 0.50 for the second.

`Nc1nc2c(-c3ccc(S(=O)(=O)NCCC(N)CF)c(S(N)(=O)=O)c3-c3nnn[nH]3)cccc2s1.O=CO` (stereo not drawn) [Example 123, 4-(4-(2-aminobenzo[d]thiazol-4-yl)-2-sulfamoyl-3-(1H-tetrazol-5-yl)phenylsulfonamido)-l-fluorobutan-2-aminium formate] and `Nc1nc2c(-c3ccc(S(=O)(=O)NCC(=O)O)c(S(N)(=O)=O)c3-c3nn[nH]n3)cccc2s1` [Example 153, ((4-(2-aminobenzo[d]thiazol-4-yl)-2-sulfamoyl-3-(2H-tetrazol-5-yl)phenyl)sulfonyl)glycine] are the same in Efflux ratio: 1.00 for the first, 1.00 for the second.

Compared with `Nc1nc2c(-c3ccc(S(=O)(=O)N[C@@H]4CCCNC4)c(S(N)(=O)=O)c3-c3nnn[nH]3)cccc2[nH]1` [Example 178, (R)-4-(2-amino-1H-benzo[d]imidazol-4-yl)-N^1-(piperidin-3-yl)-3-(1H-tetrazol-5-yl)benzene-1,2-disulfonamide], `NCCNS(=O)(=O)c1ccc(-c2cc(F)cc3[nH]c(N)nc23)c(-c2nnn[nH]2)c1S(N)(=O)=O` [Example 180, 4-(2-amino-6-fluoro-1H-benzo[d]imidazol-4-yl)-N^1-(2-aminoethyl)-3-(1H-tetrazol-5-yl)benzene-1,2-disulfonamide] is lower in Efflux ratio: 1.00 for the first, 0.50 for the second.

`NC[C@@H](N)CNS(=O)(=O)c1ccc(-c2cccc3ccc(N)nc23)c(-c2nn[nH]n2)c1S(N)(=O)=O` [Example 376, (R)-4-(2-aminoquinolin-8-yl)-N1-(2,3-diaminopropyl)-3-(2H-tetrazol-5-yl)benzene-1,2-disulfonamide] and `NCc1nc2c(-c3ccc(S(=O)(=O)NC[C@@H](O)CN)c(S(N)(=O)=O)c3-c3nn[nH]n3)cccc2[nH]1` [Example 305, (S)—N1-(3-amino-2-hydroxypropyl)-4-(2-(aminomethyl)-1H-benzo[d]imidazole-4-yl)-3-(2H-tetrazol-5-yl)benzene-1,2-disulfonamide] are the same in Efflux ratio: 1.00 for the first, 1.00 for the second.

First: NS(=O)(=O)c1c(S(=O)(=O)N[C@@H]2CCNC2)ccc(-c2cccnc2N2CCNCC2)c1-c1nn[nH]n1 [Example 220, (R)-4-(2-(piperazin-1-yl)pyridin-3-yl)-N1-(pyrrolidin-3-yl)-3-(2H-tetrazol-5-yl)benzene-1,2-disulfonamide]
Second: C[C@H](CN)NS(=O)(=O)c1ccc(-c2cccc3[nH]nnc23)c(-c2nn[nH]n2)c1S(N)(=O)=O [Example 237, (R)-N^1-(1-aminopropan-2-yl)-4-(1H-benzo[d][1,2,3]triazol-4-yl)-3-(2H-tetrazol-5-yl)benzene-1,2-disulfonamide]
The Efflux ratio of the first is higher: 4.00 for the first, 0.50 for the second.

In the case of `NCc1nc2c(-c3ccc(S(=O)(=O)NC[C@H](O)CN)c(S(N)(=O)=O)c3-c3nn[nH]n3)cccc2s1` [Example 300, (R)—N1-(3-amino-2-hydroxypropyl)-4-(2-(aminomethyl)benzo[d]thiazol-4-yl)-3-(2H-tetrazol-5-yl)benzene-1,2-disulfonamide], the Efflux ratio is reported as 1.00.

From patent US10544130B2, “Metallo-beta-lactamase inhibitors” (priority 2015, dated 2020)
